Measured values: US20200283742A1, “METHOD FOR IMPROVING ACTIVITY OF PET-DEGRADING ENZYME BY USING ADDITIVE [As Amended]” (KEIO UNIVERSITY, priority 2017, published 2020)

Columns and labels:
PETase [1] = biological target: T1, PETase (Piscinibacter sakaiensis, UniProt A0A0K8P6T7); test: PET-hydrolyzing activity of PETase on PET film in presence of surfactant (amount of degradation product MHET by HPLC); type: biochemical, Ideonella sp. No. 201-F6 strain; settings: for Relative activity: 0.01% SDS vs control; for PET-hydrolyzing activity compared with control (FIG. 2): surfactant 0.01% (w/v), pre-incubation 30° C. 1 hour, reaction 3 hours
T1 construct: made in house; host or cells: Escherichia coli BL21 Codon Plus (DE3) RIPL
T1 sequence (A0A0K8P6T7 28-290): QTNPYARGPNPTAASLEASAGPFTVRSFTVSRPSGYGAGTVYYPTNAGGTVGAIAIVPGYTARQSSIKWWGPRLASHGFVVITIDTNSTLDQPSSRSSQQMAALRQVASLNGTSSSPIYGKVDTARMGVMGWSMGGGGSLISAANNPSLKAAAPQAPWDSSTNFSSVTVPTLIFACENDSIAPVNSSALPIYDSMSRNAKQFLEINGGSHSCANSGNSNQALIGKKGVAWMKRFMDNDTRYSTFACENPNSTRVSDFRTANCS
Method: In addition to the optimal conditions, a surfactant was added in a concentration of 0.001 to 0.01 (w/v) %, and the activity was then measured. As surfactants, six types of surfactants, namely. [A] Sodium Cholate (SC), [B] 3-[(3-Cholamidopropyl)dimethylammonio]propanesulfonate (CHAPS), [C] Sodium dodecyl sulfate (SDS), [D] Octylphenol ethoxylate (Triton X-114), [E] Polysorbate 80 (Tween 80), [F] and Dodecyltrimethylammoniumu chloride (DTMA-Cl), were used (FIG. 1). The surfactant, a buffer and a film were added to the reaction system, and the obtained mixture was then pre-incubated at 30° C. for 1 hour. Thereafter, the concentration of the enzyme was set at 50 nM, the film area was set at 3.39 cm^2/mL, and the reaction was carried out for 3 hours.
A system, to which no surfactants were added, was used as a control.
The film area was changed, and the enzyme concentration was set at 50 nM or 500 nM, and thereafter, the activity was measured under the optimal conditions and in the presence of 0.01(v/v) % SDS. Moreover, a comparison was made regarding the case of setting the enzyme concentration at 50 nM and the amount of the degradation product (monohydroxyethyl terephthalate (MHET)) depending on the reaction time.
The amount of the degradation product was measured by reverse phase high performance liquid chromatography (HPLC) in accordance with the method described in International Publication WO 2015/025861.
The pre-incubation time after addition of SDS was set at 0 or 1 hour, the reaction time was set at 1 hour, the enzyme concentration was set at […], and the film area was set at 3.39 cm^2/mL. Thereafter, a comparison was made in terms of the activity under the optimal conditions.
The enzyme concentration was set at 500 nM, the SDS concentration and the film area were changed, and the activity under the optimal conditions was then measured.

PETase [2] = biological target: T1, PETase; test: pNPB (p-nitrophenyl-butyrate)-hydrolyzing activity; type: biochemical, Ideonella sp. No. 201-F6 strain; settings: 0.01 (w/v) % SDS; enzyme 250 nM; substrate pNPB
Method: In the following examples, the activity of PETase (PET-hydrolyzing activity) was measured using, as indicators, the amount of a degradation product and pNPB (p-nitrophenyl-butyrate)-hydrolyzing activity. Hereafter, a method of measuring pNPB (p-nitrophenyl-butyrate)-hydrolyzing activity is described.
pNPB used as an artificial substrate in the measurement of esterase activity is hydrolyzed into 1-butanoic acid and p-nitrophenol (pNP).
The pNPB-hydrolyzing activity immediately after purification of the enzyme was measured. The composition of a reaction solution is shown in Table 1. pNPB was dissolved in dimethyl sulfoxide (DMSO). The enzyme was mixed with a buffer, and the obtained mixture was then incubated at 30° C. for 30 minutes. Thereafter, the substrate was added to the reaction mixture, and a change in the absorbance at 425 nm for 1 minute was measured three times. The inclination (ΔAbs) of the measured absorbance change was applied to the following equation to obtain catalyst turnover frequency.
TOF: Catalyst turnover frequency; ε: Molar absorption coefficient; c: Enzyme concentration; 1: Thickness of solution layer; Δt: Reaction time.
The p-nitrophenyl-butyrate(pNPB)-hydrolyzing activity was measured in the presence of 0.01 (w/v) % SDS, in addition to the conditions shown in Table 1.

PETase [3] = biological target: T1, PETase; test: Amount of enzyme adsorbed on PET film (SDS-PAGE); parameters: species or system Ideonella sp. No. 201-F6 strain; settings: SDS 0.01 to 0.04 (w/v) %; enzyme 500 nM; pre-incubation 1 hour; reaction 3 hours; film area 1.13 cm^2/mL
Method: The amount of the enzyme adsorbed on the film was observed under conditions in which the activity was changed by addition of a surfactant. SDS was added to the reaction system to result in a concentration of 0.01 (w/v) % to 0.04 (w/v) %, in addition to conditions of an enzyme concentration of 500 nM, a pre-incubation time of 1 hour, a reaction time of 3 hours, and a film area of 1.13 cm^2/mL. After completion of the reaction, the film was removed using tweezers, and was then rinsed with distilled water. The film was placed on the lid of a 1.5-mL tube, and thereafter, 10 μL of an SDS-PAGE sample buffer was added thereto. After that, the resultant was left at rest for 10 minutes, and was then centrifuged. The thus centrifuged solution was subjected to SDS-PAGE. Moreover, in addition to the conditions without addition of surfactants, a comparison was made with conditions including addition of DTMA-Cl that was a cationic surfactant.

[4] = enzyme 50 nM, film area 1.13 cm^2/mL
[5] = enzyme 50 nM, film area 2.26 cm^2/mL
[6] = enzyme 50 nM, film area 3.39 cm^2/mL
[7] = enzyme 50 nM, film area 5.65 cm^2/mL
[8] = enzyme 50 nM, film area 9.04 cm^2/mL
[9] = enzyme 50 nM, film area 11.3 cm^2/mL
[10] = enzyme 500 nM, film area 1.13 cm^2/mL
[11] = enzyme 500 nM, film area 2.26 cm^2/mL
[12] = enzyme 500 nM, film area 3.39 cm^2/mL
[13] = enzyme 500 nM, film area 5.65 cm^2/mL
[14] = enzyme 500 nM, film area 9.04 cm^2/mL
[15] = enzyme 500 nM, film area 11.3 cm^2/mL

CCCCCCCCCCCCOS(=O)(=O)[O-].[Na+] [SDS, Sodium dodecyl sulfate]
Relative activity (PETase [1]; [4]): 2.47 fold
Relative activity (PETase [1]; [5]): 1.99 fold
Relative activity (PETase [1]; [6]): 1.86 fold
Relative activity (PETase [1]; [7]): 1.75 fold
Relative activity (PETase [1]; [8]): 1.99 fold
Relative activity (PETase [1]; [9]): 1.72 fold
Relative activity (PETase [1]; [10]): 2170 fold
Relative activity (PETase [1]; [11]): 50.6 fold
Relative activity (PETase [1]; [12]): 6.01 fold
Relative activity (PETase [1]; [13]): 3.58 fold
Relative activity (PETase [1]; [14]): 3.32 fold
Relative activity (PETase [1]; [15]): 3.11 fold
Activity relative to control (PETase [1]; addition of SDS, enzyme 50 nM, film area 1.13 cm^2/mL): approximately 2.5 times
Activity relative to control (PETase [1]; addition of SDS, enzyme 50 nM, film area 11.3 cm^2/mL): approximately 1.7 times
PET-hydrolyzing activity versus control (PETase [1]; addition of SDS, enzyme 500 nM): the activity was exhibited, although almost no activity was exhibited in the case of the control
Activity upon addition of 0.01% SDS (PETase [1]; [4]): 793 h⁻¹
Activity upon addition of 0.01% SDS (PETase [1]; [5]): 901 h⁻¹
Activity upon addition of 0.01% SDS (PETase [1]; [6]): 1020 h⁻¹
Activity upon addition of 0.01% SDS (PETase [1]; [7]): 1270 h⁻¹
Activity upon addition of 0.01% SDS (PETase [1]; [8]): 1680 h⁻¹
Activity upon addition of 0.01% SDS (PETase [1]; [9]): 1910 h⁻¹
Activity upon addition of 0.01% SDS (PETase [1]; [10]): 154 h⁻¹
Activity upon addition of 0.01% SDS (PETase [1]; [11]): 260 h⁻¹
Activity upon addition of 0.01% SDS (PETase [1]; [12]): 297 h⁻¹
Activity upon addition of 0.01% SDS (PETase [1]; [13]): 451 h⁻¹
Activity upon addition of 0.01% SDS (PETase [1]; [14]): 660 h⁻¹
Activity upon addition of 0.01% SDS (PETase [1]; [15]): 743 h⁻¹
Optimal SDS concentration (FIG. 6) (PETase [1]; enzyme 500 nM, film area of up to 5.65 cm^2/mL): 0.02 (w/v) %
Optimal SDS concentration (FIG. 6) (PETase [1]; enzyme 500 nM, film area of up to 11.3 cm^2/mL): 0.03 (w/v) %
Change over time in amount of PET degradation product / enzyme stability (FIG. 3) (PETase [1]; in presence of SDS, enzyme 50 nM, reaction of 3 hours): almost no activity decrease took place
Amount of degradation product depending on pre-incubation time (FIG. 5) (PETase [1]; pre-incubation after SDS addition 0 or 1 hour, reaction 1 hour, enzyme 50 nM, film area 3.39 cm^2/mL): the amount of a degradation product was changed depending on the pre-incubation time
PET-hydrolyzing activity compared with control (FIG. 2) (PETase [1]; [6]): approximately two times greater than the activity of the control
Reduction of pNPB-hydrolyzing activity after addition of SDS (FIG. 4) (PETase [2]): approximately 5%
Amount of enzyme (protein) adsorbed on film (FIG. 7) (PETase [3]): adsorption of a large amount of protein was confirmed

Polysorbate 80 [Tween 80]
PET-hydrolyzing activity compared with control (FIG. 2) (PETase [1]; [6]): the activity was found with the surfactants other than Tween 80 and DTMA-Cl

CCCCCCCCCCCC[N+](C)(C)C.[Cl-] [DTMA-Cl, Dodecyltrimethylammoniumu chloride]
PET-hydrolyzing activity compared with control (FIG. 2) (PETase [1]; [6]): the activity was significantly decreased
